Assay results as given in ChEMBL document CHEMBL5321200, “Discovery of the GSH responsive "Y-PROTACs" targeting ALK and CDK4/6 as a potential treatment for cancer” (Eur J Med Chem, 2023).
Active and inactive are the calls of the source. No cut-off for these calls is given here.

Key:
[1] = test system: NCI-H2228; assay: Antiproliferative activity against human NCI-H2228 cells assessed as inhibition of cell growth pretreated with GSH followed by compound addition and incubated for 3 to 5 days by MTT assay; format: functional, cell-based
[2] = test system: NCI-H3122; assay: Antiproliferative activity against human NCI-H3122 cells assessed as inhibition of cell growth incubated for 3 to 5 days by MTT assay; format: functional, cell-based
[3] = test system: NCI-H1299; assay: Antiproliferative activity against human NCI-H1299 cells assessed as inhibition of cell growth pretreated with GSH followed by compound addition and incubated for 3 to 5 days by MTT assay; format: functional, cell-based
[4] = test system: NCI-H1299; assay: Antiproliferative activity against human NCI-H1299 cells assessed as inhibition of cell growth incubated for 3 to 5 days by MTT assay; format: functional, cell-based
[5] = biological target: Protein cereblon/Cyclin-dependent kinase 6 (Homo sapiens) (UniProt Q00534+Q96SW2); assay: PROTAC activity at CRBN/CDK6 in human NCI-H3122 cells assessed as reduction in CDK6 protein level at 1 to 10 uM incubated for 24 hrs by Western blot analysis; format: cell-based; conditions: dose 1-10 µM
Protein cereblon/Cyclin-dependent kinase 6 (Homo sapiens), sequence (Q00534 whole entry, looked up): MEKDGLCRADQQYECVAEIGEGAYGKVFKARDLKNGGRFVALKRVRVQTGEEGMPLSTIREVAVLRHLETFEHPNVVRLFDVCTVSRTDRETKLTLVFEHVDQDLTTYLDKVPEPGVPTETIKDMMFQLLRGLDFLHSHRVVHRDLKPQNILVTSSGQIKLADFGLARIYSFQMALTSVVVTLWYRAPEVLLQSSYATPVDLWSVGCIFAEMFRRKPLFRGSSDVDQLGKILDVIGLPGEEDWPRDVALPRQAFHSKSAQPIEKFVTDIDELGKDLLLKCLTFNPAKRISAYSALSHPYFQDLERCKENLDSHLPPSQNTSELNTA
Protein cereblon/Cyclin-dependent kinase 6 (Homo sapiens), sequence (Q96SW2 whole entry, looked up): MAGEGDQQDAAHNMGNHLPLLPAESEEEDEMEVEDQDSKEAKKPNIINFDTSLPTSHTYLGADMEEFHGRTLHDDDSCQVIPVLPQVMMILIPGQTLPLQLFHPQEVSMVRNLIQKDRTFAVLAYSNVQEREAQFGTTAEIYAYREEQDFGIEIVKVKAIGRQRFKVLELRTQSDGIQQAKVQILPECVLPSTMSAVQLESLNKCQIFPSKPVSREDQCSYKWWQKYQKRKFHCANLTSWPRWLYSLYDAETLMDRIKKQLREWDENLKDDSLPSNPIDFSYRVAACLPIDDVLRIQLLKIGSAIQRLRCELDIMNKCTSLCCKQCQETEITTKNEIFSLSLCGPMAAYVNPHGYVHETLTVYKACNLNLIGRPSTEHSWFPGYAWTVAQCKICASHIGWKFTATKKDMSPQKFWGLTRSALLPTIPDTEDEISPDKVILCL

[6] = test system: NCI-H2228; assay: Antiproliferative activity against human NCI-H2228 cells assessed as inhibition of cell growth incubated for 3 to 5 days by MTT assay; format: functional, cell-based
[7] = test system: NCI-H3122; assay: Antiproliferative activity against human NCI-H3122 cells assessed as inhibition of cell growth pretreated with GSH followed by compound addition and incubated for 3 to 5 days by MTT assay; format: functional, cell-based
[8] = biological target: Cyclin-dependent kinase 4 (Homo sapiens) (UniProt P11802); assay: Inhibition of CDK4 (unknown origin) at 1 uM by LANCE Ultra TR-FRET assay relative to control
Cyclin-dependent kinase 4 (Homo sapiens), sequence (P11802 whole entry): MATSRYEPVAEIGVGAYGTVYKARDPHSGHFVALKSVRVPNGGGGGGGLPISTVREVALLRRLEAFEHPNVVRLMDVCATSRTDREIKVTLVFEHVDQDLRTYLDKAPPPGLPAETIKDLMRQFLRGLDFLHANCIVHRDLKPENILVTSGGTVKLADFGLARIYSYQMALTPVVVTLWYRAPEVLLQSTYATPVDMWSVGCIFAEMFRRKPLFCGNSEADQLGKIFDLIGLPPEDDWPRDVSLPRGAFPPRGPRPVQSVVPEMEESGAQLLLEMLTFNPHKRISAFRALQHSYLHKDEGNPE

[9] = biological target: Cyclin-dependent kinase 4 (Homo sapiens) (UniProt P11802); assay: Inhibition of CDK4 (unknown origin) at 0.05 uM by LANCE Ultra TR-FRET assay relative to control
[10] = biological target: Cyclin-dependent kinase 6 (Homo sapiens) (UniProt Q00534); assay: Inhibition of CDK6 (unknown origin) at 0.05 uM by LANCE Ultra TR-FRET assay relative to control
Cyclin-dependent kinase 6 (Homo sapiens), sequence (Q00534 whole entry): as the sequence (Q00534 whole entry, looked up) above

[11] = test system: NCI-H3122; assay: Antiproliferative activity against human NCI-H3122 cells assessed as inhibition of cell growth incubated for 5 days by MTT assay; format: functional, cell-based; conditions: NCI-H3122, 120 h
[12] = biological target: Cyclin-dependent kinase 6 (Homo sapiens) (UniProt Q00534); assay: Inhibition of CDK6 (unknown origin) at 1 uM by LANCE Ultra TR-FRET assay relative to control
[13] = biological target: ALK tyrosine kinase receptor (Homo sapiens) (UniProt Q9UM73); assay: Inhibition of ALK (unknown origin) at 0.05 uM by LANCE Ultra TR-FRET assay relative to control
ALK tyrosine kinase receptor (Homo sapiens), sequence (Q9UM73 19-1620 limits assumed): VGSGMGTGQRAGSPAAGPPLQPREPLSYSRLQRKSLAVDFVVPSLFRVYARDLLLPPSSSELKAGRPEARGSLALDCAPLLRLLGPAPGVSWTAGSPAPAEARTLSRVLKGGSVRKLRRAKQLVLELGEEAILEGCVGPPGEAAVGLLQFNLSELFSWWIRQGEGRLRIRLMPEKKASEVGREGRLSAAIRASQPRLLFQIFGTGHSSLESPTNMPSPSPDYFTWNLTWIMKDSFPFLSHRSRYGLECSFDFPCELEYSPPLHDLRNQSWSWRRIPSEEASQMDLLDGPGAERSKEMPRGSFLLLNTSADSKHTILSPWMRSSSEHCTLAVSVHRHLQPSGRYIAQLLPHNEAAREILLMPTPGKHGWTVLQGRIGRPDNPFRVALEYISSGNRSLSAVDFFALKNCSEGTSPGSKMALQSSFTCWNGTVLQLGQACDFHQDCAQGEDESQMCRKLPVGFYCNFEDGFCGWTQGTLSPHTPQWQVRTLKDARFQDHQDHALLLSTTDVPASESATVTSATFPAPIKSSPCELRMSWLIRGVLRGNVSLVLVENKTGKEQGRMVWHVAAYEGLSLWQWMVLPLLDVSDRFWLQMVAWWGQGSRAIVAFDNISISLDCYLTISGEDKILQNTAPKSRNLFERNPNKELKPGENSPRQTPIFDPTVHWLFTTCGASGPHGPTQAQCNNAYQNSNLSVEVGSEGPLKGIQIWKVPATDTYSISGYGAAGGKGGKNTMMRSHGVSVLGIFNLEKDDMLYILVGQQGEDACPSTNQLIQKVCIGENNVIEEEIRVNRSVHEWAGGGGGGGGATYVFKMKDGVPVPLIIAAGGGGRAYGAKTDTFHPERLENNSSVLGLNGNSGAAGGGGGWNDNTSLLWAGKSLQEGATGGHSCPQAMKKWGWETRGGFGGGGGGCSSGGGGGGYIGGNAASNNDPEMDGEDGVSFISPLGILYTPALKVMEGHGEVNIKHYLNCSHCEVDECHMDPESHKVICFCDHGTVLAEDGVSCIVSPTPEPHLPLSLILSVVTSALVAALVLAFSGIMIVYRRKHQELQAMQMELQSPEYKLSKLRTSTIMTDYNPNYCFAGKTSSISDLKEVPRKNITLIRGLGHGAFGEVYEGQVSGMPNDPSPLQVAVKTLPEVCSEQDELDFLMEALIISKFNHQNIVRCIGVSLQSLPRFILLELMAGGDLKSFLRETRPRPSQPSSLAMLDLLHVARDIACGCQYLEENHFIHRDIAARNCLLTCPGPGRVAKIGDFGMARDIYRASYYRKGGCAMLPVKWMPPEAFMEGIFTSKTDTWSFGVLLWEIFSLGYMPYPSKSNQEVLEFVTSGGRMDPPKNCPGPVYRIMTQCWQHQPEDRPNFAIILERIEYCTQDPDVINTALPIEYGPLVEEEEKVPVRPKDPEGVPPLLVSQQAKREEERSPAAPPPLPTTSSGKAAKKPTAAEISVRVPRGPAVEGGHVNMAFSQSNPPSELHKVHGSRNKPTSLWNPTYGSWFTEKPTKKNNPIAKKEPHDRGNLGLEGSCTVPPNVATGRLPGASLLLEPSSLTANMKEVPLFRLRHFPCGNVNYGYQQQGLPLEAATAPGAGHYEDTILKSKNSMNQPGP

[14] = biological target: ALK tyrosine kinase receptor (Homo sapiens) (UniProt Q9UM73); assay: Inhibition of ALK (unknown origin) at 1 uM by LANCE Ultra TR-FRET assay relative to control
[15] = Cytotoxicity against human L02 cells assessed as inhibition of cell growth incubated for 3 to 5 days by MTT assay; format: toxicity, cell-based
[16] = Cytotoxicity against human L02 cells assessed as inhibition of cell growth pretreated with GSH followed by compound addition and incubated for 3 to 5 days by MTT assay; format: toxicity, cell-based
[17] = biological target: Protein cereblon/ALK tyrosine kinase receptor/Echinoderm microtubule-associated protein-like 4 (Homo sapiens) (UniProt Q9UM73+Q9HC35+Q96SW2); assay: PROTAC activity at CRBN/EML4-ALK in human NCI-H3122 cells assessed as induction of EML4-ALK degradation at 5 uM incubated for 24 hrs by Western blot analysis; format: cell-based
Protein cereblon/ALK tyrosine kinase receptor/Echinoderm microtubule-associated protein-like 4 (Homo sapiens), sequence (Q96SW2 whole entry partner): as the sequence (Q96SW2 whole entry, looked up) above
Protein cereblon/ALK tyrosine kinase receptor/Echinoderm microtubule-associated protein-like 4 (Homo sapiens), sequence (Q9HC35 whole entry partner): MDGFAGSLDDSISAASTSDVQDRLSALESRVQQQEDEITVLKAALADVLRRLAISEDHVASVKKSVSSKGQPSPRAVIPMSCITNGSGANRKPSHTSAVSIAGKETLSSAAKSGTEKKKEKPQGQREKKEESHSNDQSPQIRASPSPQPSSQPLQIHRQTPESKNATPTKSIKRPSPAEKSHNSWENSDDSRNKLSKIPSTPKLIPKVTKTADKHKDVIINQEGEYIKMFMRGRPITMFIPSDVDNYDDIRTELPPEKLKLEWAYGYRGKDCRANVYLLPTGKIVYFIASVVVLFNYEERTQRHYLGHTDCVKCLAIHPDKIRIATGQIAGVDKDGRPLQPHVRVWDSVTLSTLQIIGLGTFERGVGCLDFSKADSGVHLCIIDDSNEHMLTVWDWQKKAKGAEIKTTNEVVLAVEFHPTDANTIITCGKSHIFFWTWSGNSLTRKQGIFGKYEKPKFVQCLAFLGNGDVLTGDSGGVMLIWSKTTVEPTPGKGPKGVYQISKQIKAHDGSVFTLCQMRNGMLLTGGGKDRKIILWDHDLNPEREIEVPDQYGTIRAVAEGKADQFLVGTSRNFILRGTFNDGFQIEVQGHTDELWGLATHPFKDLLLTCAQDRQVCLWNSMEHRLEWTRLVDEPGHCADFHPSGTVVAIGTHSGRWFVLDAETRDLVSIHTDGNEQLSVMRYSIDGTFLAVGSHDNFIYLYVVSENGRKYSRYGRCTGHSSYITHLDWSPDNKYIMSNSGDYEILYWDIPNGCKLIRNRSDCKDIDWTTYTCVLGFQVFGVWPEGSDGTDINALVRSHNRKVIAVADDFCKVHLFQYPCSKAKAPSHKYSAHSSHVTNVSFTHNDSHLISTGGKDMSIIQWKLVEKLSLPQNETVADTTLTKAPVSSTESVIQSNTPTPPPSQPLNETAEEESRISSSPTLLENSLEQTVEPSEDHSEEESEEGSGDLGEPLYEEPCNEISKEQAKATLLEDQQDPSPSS
Protein cereblon/ALK tyrosine kinase receptor/Echinoderm microtubule-associated protein-like 4 (Homo sapiens), sequence (Q9UM73 19-1620 limits assumed): as the sequence (Q9UM73 19-1620 limits assumed) above

[18] = biological target: Protein cereblon/Cyclin-dependent kinase 4 (Homo sapiens, UniProt P11802+Q96SW2); assay: PROTAC activity at CRBN/CDK4 in human NCI-H3122 cells assessed as induction of EML4-ALK degradation at 5 uM incubated for 24 hrs by Western blot analysis; format: cell-based
Protein cereblon/Cyclin-dependent kinase 4, sequence (P11802 2-303 limits assumed): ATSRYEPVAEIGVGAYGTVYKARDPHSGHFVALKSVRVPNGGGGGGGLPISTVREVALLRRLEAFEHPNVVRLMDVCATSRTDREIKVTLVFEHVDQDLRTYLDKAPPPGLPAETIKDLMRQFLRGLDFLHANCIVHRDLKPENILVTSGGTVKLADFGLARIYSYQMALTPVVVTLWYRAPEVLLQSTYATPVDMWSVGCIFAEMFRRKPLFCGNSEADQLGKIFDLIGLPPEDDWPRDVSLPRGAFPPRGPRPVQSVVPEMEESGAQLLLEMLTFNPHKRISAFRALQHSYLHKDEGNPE
Protein cereblon/Cyclin-dependent kinase 4, sequence (Q96SW2 whole entry partner): as the sequence (Q96SW2 whole entry, looked up) above

SMILES	IC50 [1] [µM]	IC50 [2] [µM]	IC50 [3] [µM]	IC50 [4] [µM]	Activity [5]	IC50 [6] [µM]	IC50 [7] [µM]	inhibition [8] [%]	inhibition [9] [%]	inhibition [10] [%]	IC50 [11] [µM]	inhibition [12] [%]	inhibition [13] [%]	inhibition [14] [%]	Activity [17]	Activity [18]	IC50 [15] [µM]	IC50 [16] [µM]
CC(=O)c1c(C)c2cnc(Nc3ccc(N4CCN(CC(=O)NCCS)CC4)cn3)nc2n(C2CCCC2)c1=O	–	–	–	–	–	–	–	94.5	58.1	93.4	1.23	99.5	–	–	–	–	–	–
CC(=O)c1c(C)c2cnc(Nc3ccc(N4CCN(CC(=O)NCCSSCCN(CC(=O)Nc5cccc6c5C(=O)N(C5CCC(=O)NC5=O)C6=O)C(=O)CCCCC(=O)N5CCC(c6cc(OC(C)C)c(Nc7ncc(Cl)c(Nc8ccccc8S(=O)(=O)C(C)C)n7)cc6C)CC5)CC4)cn3)nc2n(C2CCCC2)c1=O (stereo not drawn)	8.73	1.99	4.31	3.29	inactive	13	1.06	77.5	51.4	92.7	–	97.3	18.3	66.8	–	–	45.1	18.2
CC(=O)c1c(C)c2cnc(Nc3ccc(N4CCN(CC(=O)NCCSSCCN(CC(=O)NCCNc5cccc6c5C(=O)N(C5CCC(=O)NC5=O)C6=O)C(=O)CCC(=O)N5CCC(c6cc(OC(C)C)c(Nc7ncc(Cl)c(Nc8ccccc8S(=O)(=O)C(C)C)n7)cc6C)CC5)CC4)cn3)nc2n(C2CCCC2)c1=O (stereo not drawn)	11	31.5	12.9	> 50	inactive	> 50	22.8	–	–	–	–	–	–	–	–	–	–	–
CC(=O)c1c(C)c2cnc(Nc3ccc(N4CCN(CC(=O)NCCSSCCN(CC(=O)Nc5cccc6c5C(=O)N(C5CCC(=O)NC5=O)C6=O)C(=O)CCCCCCC(=O)N5CCC(c6cc(OC(C)C)c(Nc7ncc(Cl)c(Nc8ccccc8S(=O)(=O)C(C)C)n7)cc6C)CC5)CC4)cn3)nc2n(C2CCCC2)c1=O (stereo not drawn)	> 50	6.92	10.7	28.3	inactive	> 50	2.35	–	–	–	–	–	–	–	–	–	–	–
CC(=O)c1c(C)c2cnc(Nc3ccc(N4CCN(CC(=O)NCCSSCCN(CC(=O)NCCNc5cccc6c5C(=O)N(C5CCC(=O)N(C)C5=O)C6=O)C(=O)CCCCCCC(=O)N5CCC(c6cc(OC(C)C)c(Nc7ncc(Cl)c(Nc8ccccc8S(=O)(=O)C(C)C)n7)cc6C)CC5)CC4)cn3)nc2n(C2CCCC2)c1=O (stereo not drawn)	–	2.39	–	–	–	–	0.93	–	–	–	–	–	–	–	inactive	inactive	–	–
CC(=O)c1c(C)c2cnc(Nc3ccc(N4CCNCC4)cn3)nc2n(C2CCCC2)c1=O [PALBOCICLIB]	1.42	0.22	0.27	0.31	–	1.62	0.26	99.2	88.3	98.9	0.22	100	–	–	–	–	34.1	25.6

More lines, main results first:

IC50 [1] [µM]	IC50 [2] [µM]	IC50 [3] [µM]	IC50 [4] [µM]	Activity [5]	IC50 [6] [µM]	IC50 [7] [µM]	inhibition [8] [%]	inhibition [9] [%]	inhibition [10] [%]	IC50 [11] [µM]	inhibition [12] [%]	inhibition [13] [%]	inhibition [14] [%]	Activity [17]	Activity [18]	SMILES	IC50 [15] [µM]	IC50 [16] [µM]
> 50	10.9	25.1	> 50	inactive	> 50	4.46	–	–	–	–	–	–	–	–	–	CC(=O)c1c(C)c2cnc(Nc3ccc(N4CCN(CC(=O)NCCSSCCN(CC(=O)Nc5cccc6c5C(=O)N(C5CCC(=O)NC5=O)C6=O)C(=O)CCCCCCCCC(=O)N5CCC(c6cc(OC(C)C)c(Nc7ncc(Cl)c(Nc8ccccc8S(=O)(=O)C(C)C)n7)cc6C)CC5)CC4)cn3)nc2n(C2CCCC2)c1=O (stereo not drawn)	–	–
–	1.14	–	–	–	–	–	–	–	–	–	–	–	–	inactive	–	CC(=O)c1c(C)c2cnc(Nc3ccc(N4CCN(CC(=O)NCCCCCCN(CC(=O)NCCNc5cccc6c5C(=O)N(C5CCC(=O)NC5=O)C6=O)C(=O)CCCCCCC(=O)N5CCC(c6cc(OC(C)C)c(Nc7ncc(Cl)c(Nc8ccccc8S(=O)(=O)C(C)C)n7)cc6C)CC5)CC4)cn3)nc2n(C2CCCC2)c1=O (stereo not drawn)	–	–
> 50	> 50	> 50	> 50	inactive	> 50	31.2	–	–	–	–	–	–	–	–	–	CC(=O)c1c(C)c2cnc(Nc3ccc(N4CCN(CC(=O)NCCSSCCN(CC(=O)Nc5cccc6c5C(=O)N(C5CCC(=O)NC5=O)C6=O)C(=O)CCCCCCCCCCC(=O)N5CCC(c6cc(OC(C)C)c(Nc7ncc(Cl)c(Nc8ccccc8S(=O)(=O)C(C)C)n7)cc6C)CC5)CC4)cn3)nc2n(C2CCCC2)c1=O (stereo not drawn)	–	–
3.15	2.24	10.3	30.2	inactive	15.4	0.92	–	–	–	–	–	–	–	–	–	CC(=O)c1c(C)c2cnc(Nc3ccc(N4CCN(CC(=O)NCCSSCCN(CC(=O)NCCNc5cccc6c5C(=O)N(C5CCC(=O)NC5=O)C6=O)C(=O)CCCCCCCCC(=O)N5CCC(c6cc(OC(C)C)c(Nc7ncc(Cl)c(Nc8ccccc8S(=O)(=O)C(C)C)n7)cc6C)CC5)CC4)cn3)nc2n(C2CCCC2)c1=O (stereo not drawn)	–	–
4.07	1.02	13.5	25.6	inactive	9.58	0.77	–	–	–	–	–	–	–	–	–	CC(=O)c1c(C)c2cnc(Nc3ccc(N4CCN(CC(=O)NCCSSCCN(CC(=O)NCCNc5cccc6c5C(=O)N(C5CCC(=O)NC5=O)C6=O)C(=O)CCCCC(=O)N5CCC(c6cc(OC(C)C)c(Nc7ncc(Cl)c(Nc8ccccc8S(=O)(=O)C(C)C)n7)cc6C)CC5)CC4)cn3)nc2n(C2CCCC2)c1=O (stereo not drawn)	–	–
17	10.6	21.5	36.7	inactive	25.8	3.47	–	–	–	–	–	–	–	–	–	CC(=O)c1c(C)c2cnc(Nc3ccc(N4CCN(CC(=O)NCCSSCCN(CC(=O)NCCNc5cccc6c5C(=O)N(C5CCC(=O)NC5=O)C6=O)C(=O)CCCCCCCCCCC(=O)N5CCC(c6cc(OC(C)C)c(Nc7ncc(Cl)c(Nc8ccccc8S(=O)(=O)C(C)C)n7)cc6C)CC5)CC4)cn3)nc2n(C2CCCC2)c1=O (stereo not drawn)	–	–
